In patent US20110230477A1, “COMPOUNDS, PHARMACEUTICAL COMPOSITION AND METHODS FOR USE IN TREATING METABOLIC DISORDERS” (Euroscreen S.A., priority 2008, published 2011) one finds EC50 data, which are given here for 14 compounds.

This experiment addresses T1, human GPR43 receptor (hGPR43) (Homo sapiens, UniProt O15552).
T1 construct: expressed in transfected cells
T1 sequence (O15552 1-330): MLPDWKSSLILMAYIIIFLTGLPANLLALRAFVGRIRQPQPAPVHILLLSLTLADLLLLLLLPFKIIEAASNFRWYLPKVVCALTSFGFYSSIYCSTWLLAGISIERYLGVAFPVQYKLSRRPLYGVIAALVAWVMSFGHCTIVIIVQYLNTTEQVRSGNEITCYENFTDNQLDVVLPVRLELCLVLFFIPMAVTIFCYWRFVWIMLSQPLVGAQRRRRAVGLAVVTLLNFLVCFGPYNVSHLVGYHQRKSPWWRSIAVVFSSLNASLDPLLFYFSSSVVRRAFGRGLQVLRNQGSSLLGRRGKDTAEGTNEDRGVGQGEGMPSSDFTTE
Description: GTPγS binding assay (SPA method). To be noted: membranes expressing hGPR43; assay performed in the presence of SCFA; read-out: EC50 (nM) in GTPγ35S assay. It is filed as biochemical. The source says:
The following assay can be used for determination of GPR43 activation. When a GPCR is in its active state, either as a result of ligand binding or constitutive activation, the receptor couples to a G protein and stimulates the release of GDP and subsequent binding of GTP to the G protein. The alpha subunit of the G protein-receptor complex acts as a GTPase and slowly hydrolyses the GTP to GDP, at which point the receptor normally is deactivated. Activated receptors continue to exchange GDP for GTP. […] The assay uses the ability of GPCR to stimulate [^35S]GTPγS binding to membranes expressing the relevant receptors. The assay can, therefore, be used in the direct identification method to screen candidate compounds to endogenous or not endogenous GPCR.
Membrane extracts were prepared from cells expressing the human GPR43 receptor (hGPR43) as follows: the medium was aspirated and the cells were scraped from the plates in Ca^++ and Mg^++-free Phosphate-buffered saline (PBS). The cells were then centrifuged for 3 min at 1500 g and the pellets were resuspended in buffer A (15 mM Tris-HCl pH 7.5, 2 mM MgCl2, 0.3 mM EDTA, 1 mM EGTA) and homogenized in a glass homogenizer. […] Protein content was assayed by the Folin method.
The assay was performed in the presence of SCFA, and was used to determine the activity of the compounds of the invention.
The [^35S]GTPγS assay was incubated in 20 mM HEPES pH7.4, 100 mM NaCl, 10 μg/ml saponin, 30 mM of MgCl2, 10 μM of GDP, 5 μg membrane-expressing hGPR43, 250 μg of wheatgerm agglutinin beads (Amersham, ref: RPNQ001), a range concentration of compounds (from 30 μM to 1 nM) in a final volume of 100 μl for 30 min at room temperature. The SCFA propionate was used at 1 mM final concentration as positive control. The plates were then centrifuged for 10 minutes at 2000 rpm, incubated for 2 hours at room temperature and counted for 1 min in a scintillation counter (TopCount, PerkinElmer).

For the compound `O=C(O)C[C@@H](Cc1ccccc1)C(=O)Nc1nc(-c2ccccc2Cl)c(F)s1` [Compound 20, (R)-3-benzyl-4-(4-(2-chlorophenyl)-5-fluorothiazol-2-ylamino)-4-oxobutanoic acid], the EC50 is 96 nM. `Cc1sc(NC(=O)[C@@H](CC(=O)O)Cc2ccccc2)c(C(N)=O)c1-c1ccc(Cl)cc1Cl` [Compound 207, (3R)-3-benzyl-4-((3-carbamoyl-4-(2,4-dichlorophenyl)-5-methylthiophen-2-yl)amino)-4-oxobutanoic acid]: the concentration for a half-maximal effect (EC50) was found to be 2910 nM. Regarding `O=C(O)C[C@@H](Cc1ccccc1)C(=O)Nc1nc(-c2ccccc2)ns1` [Compound 11, (R)-3-benzyl-4-oxo-4-(3-phenyl-1,2,4-thiadiazol-5-ylamino)butanoic acid], the EC50 came to 680 nM. Consider `CN(C(=O)[C@@H](CC(=O)O)CC1CCCC1)c1nc(-c2ccccc2-c2ccc(N3CCOCC3)nc2)cs1` [Compound 171, (R)-3-(cyclopentylmethyl)-4-(methyl(4-(2-(6-morpholinopyridin-3-yl)phenyl)thiazol-2-yl)amino)-4-oxobutanoic acid], for which the concentration for a half-maximal effect (EC50) stood at 50 nM. Consider `Cc1ccc(CC(CC(=O)O)C(=O)N(C)c2nc(-c3ccccc3Cl)cs2)cc1` (centres unmarked) [Compound 110, 4-((4-(2-chlorophenyl)thiazol-2-yl)(methyl)amino)-3-(4-methylbenzyl)-4-oxobutanoic acid], for which the EC50 amounted to 452 nM. `O=C(O)C[C@@H](Cc1ccccc1)C(=O)Nc1nc(-c2ccc(Cl)cc2Cl)cs1` [Compound 3, (R)-3-benzyl-4-(4-(2,4-dichlorophenyl)thiazol-2-ylamino)-4-oxobutanoic acid]: the EC50 was 653 nM. With `CN(C(=O)[C@@H](CC(=O)O)Cc1ccccc1)c1nc(-c2ccccc2-c2ccc(N3CCCC3=O)nc2)cs1` [Compound 150, (R)-3-benzyl-4-(methyl(4-(2-(6-(2-oxopyrrolidin-1-yl)pyridin-3-yl)phenyl)thiazol-2-yl)amino)-4-oxobutanoic acid], the EC50 is 353 nM. The same measure for `CN(C(=O)[C@@H](CC(=O)O)Cc1ccccc1)c1nc(-c2cc(Cl)cc(Cl)c2Cl)cs1` [Compound 175, (R)-3-benzyl-4-(methyl(4-(2,3,5-trichlorophenyl)thiazol-2-yl)amino)-4-oxobutanoic acid]: 57 nM.

As for `CCN(C(=O)[C@@H](CC(=O)O)Cc1ccccc1)c1nc(-c2ccccc2Cl)cs1` [Compound 96, (R)-3-benzyl-4-((4-(2-chlorophenyl)thiazol-2-yl)(ethyl)amino)-4-oxobutanoic acid], the EC50 is 249 nM. As to `O=C(O)C[C@@H](Cc1ccccc1)C(=O)Nc1nc(-c2ccccc2Cl)cs1` [Compound 2, (R)-3-benzyl-4-(4-(2-chlorophenyl)thiazol-2-ylamino)-4-oxobutanoic acid], the EC50 came out at 273 nM.

As to `CN(C(=O)[C@@H](CC(=O)O)CC1CCOCC1)c1nc(-c2cc(Cl)ccc2Cl)cs1` [Compound 168, (R)-4-((4-(2,5-dichlorophenyl)thiazol-2-yl)(methyl)amino)-4-oxo-3-((tetrahydro-2H-pyran-4-yl)methyl)butanoic acid], the EC50 was found to be 43 nM.

As to `CN(C(=O)[C@@H](CC(=O)O)Cc1ccccc1)c1nc(-c2ccccc2-c2ccc(OC3CCOCC3)nc2)cs1` [Compound 141, (R)-3-benzyl-4-(methyl(4-(2-(6-((tetrahydro-2H-pyran-4-yl)oxy)pyridin-3-yl)phenyl)thiazol-2-yl)amino)-4-oxobutanoic acid], the concentration giving a half-maximal response (EC50) was found to be 996 nM.

On to `CN(C(=O)C(CC(=O)O)Cc1cscn1)c1nc(-c2ccccc2Cl)cs1` (centres unmarked) [Compound 114, 4-((4-(2-chlorophenyl)thiazol-2-yl)(methyl)amino)-4-oxo-3-(thiazol-4-ylmethyl)butanoic acid], for which the EC50 turned out to be 539 nM.

Turning to `CN(C(=O)[C@@H](CC(=O)O)Cc1ccccc1)c1nc(-c2ccccc2Cl)c(Cl)s1` [Compound 21, (R)-3-benzyl-4-((5-chloro-4-(2-chlorophenyl)thiazol-2-yl)(methyl)amino)-4-oxobutanoic acid], the EC50 is 260 nM.
